Measurements reported in patent US10517862B2, “Fused heterocyclic compound derivative and application thereof” (NHWA PHARMA. CORPORATION, priority 2015, dated 2019).

Assays:
D2 receptor = D2 receptor binding assay (3H-Spiperone, rat striatum membrane); settings: for affinity with D2 (in words): summary of in vitro assay; for D2 Inhibition rate (%): test compound final concentration 10^−5 M, 3H-Spiperone, rat striatum membrane
Method: Preparation of D2 Membrane
Rats were decapitated on ice. […] The weight of the homogenized tubes were adjusted using a balance, and centrifugation was conducted. […] Centrifugation was conducted.
Materials for the Receptor Binding Assay

D3 receptor = biological target: T1, D3 receptor (Homo sapiens, UniProt P35462); assay: D3 receptor assay ([3H]-Spiperone, HEK-293 cells); type: binding; settings: for affinity with D3 (in words): summary of in vitro assay; for inhibition at 10 µM: test compound final concentration 10 μmol/L, [3H]-Spiperone, HEK-293 cells, read-out: D3 Inhibition rate (%)
T1 construct: expressed in transfected cells; host or cells: HEK-293
Method: Then the cells were centrifuged at 1000 rpm for 5 min, the supernatant was discarded, and the cell pellets was collected and stored in a −20° C. fridge for reservation. It was re-suspended with Tris-Cl (pH 7.4) when the assay was performed.
Tris was divided into aliquots by Genetimes Technology Inc.
Competitive binding test for receptors: 20 μl of each of the test compounds and 20 μl of the radioactive ligand together with 160 μl of the receptor proteins were added into the reaction tubes, and the final concentrations of the test compound and the positive drug were all 10 μmol/L. After 50 min of incubation in 30° C. water bath, the tubes were immediately moved to ice bath to terminate the reactions. GF/C glass fiber filter papers were used for rapid sucking filtration on a Millipore cell sample collector, 3 ml of elution buffer (50 mM Tris-HCl, PH 7.4) was applied for 3 times, and microwave was applied for 4-5 min for drying. The filter paper was moved into 0.5 ml centrifuge tube, and 500 μl of liposoluble scintillation cocktail was added. The tubes were allowed to stand still for over 30 min in dark, and the intensities of radioactivity were measured by a counter.

[1] = tested on: α1 norepinephrine receptor; assay: α1 norepinephrine receptor binding assay (3H-prazosin, rat cortex membrane); settings: for affinity with α1 (in words): summary of in vitro assay; for α1 Inhibition rate (%): test compound final concentration 10^−5 M, 3H-prazosin, rat cortex membrane
Source text: Preparation of Receptor Membrane of Norepinephrine
α1 Norepinephrine Receptor Binding Assay

mice of Kunming breed [2] = assay: MK-801 induced high activity in mice; type: in vivo; settings: Mus musculus, 1.5 h, po, MK-801 0.1 mg/kg ip, spontaneous activities in 90 min
Method: Example 54: MK-801 Induced High Activity—the In Vivo Anti-Schizophrenia Activity of the Compounds
Healthy mice of Kunming breed (with half male and half female, (20±2) g) were provided by Qinglongshan Animal Cultivation Center, Nanjing.
Ascorbic acid was provided by Sinopharm Chemical Reagent Co. Ltd.
MK-801 was produced by Sigma Company, USA; the formulation method: 0.1% vitamin C was used to formulate a 1 mg/ml solution.
Test positive drugs: haloperidol, clozapine, risperidone, olanzapine, aripiprazole, ziprasidone, quetiapine.
Tween 80, with the concentration of 10%.
Mice with qualified body weight were selected, and randomly divided into blank group, model group, positive control group (risperidone group) and drug group. […] 1 h after the administration, 0.1% concentration of ascorbic acid was intraperitoneally injected to the blank group at 0.1 ml/10 g; and the model group, the positive control group (30 min) and the drug group were intraperitoneally injected the MK-801 solution at 0.1 mg/kg. Subsequently, the spontaneous activities of the mice of each group in 90 min were measured.

mice of Kunming breed [3] = assay: Apomorphine induced clambering assay of mice; type: in vivo; settings: Mus musculus; mice, po; apomorphine 1 mg/kg sc 1 hour after administration; read-out: Apomorphine induced clambering (ED50, po, mg/kg)
Method: Healthy mice of Kunming breed (KM) (male, with body weight of 18-22 g) were provided by Qinglongshan Animal Cultivation Center, Nanjing.
Apomorphine provided by Sigma Company was dissolved in 0.9% NaCl (containing 0.1% vitamin C) before use, and was freshly formulated before use.
Vitamin C, F20061113, was provided by Sinopharm Chemical Reagent Co. Ltd.
Sodium chloride injection, H32026305, was provided by Xuzhou No. 5 Pharmaceutical Factory Co. Ltd.
Instruments: self-made clambering cage, chronograph.
Procedures: apomorphine induced clambering assay of mice
After 5 min of adaptation, the behavior of the mice at 10-11, 20-21, and 30-31 min after the injection of apomorphine were observed and scored. Scoring criteria: the behavior of 4 paws on the floor was scored as 0; the behavior of 2 forepaws on the cage was scored as 1; and the behavior of 4 paws on the cage was scored as 2.

Catalepsy assay in mice = settings: both sexes, Kunming, mouse, in vivo, po, bar test at 30, 60, 90 min
Method: Healthy mice of Kunming breed (with half male and half female, (22±2) g) were provided by Qinglongshan Animal Cultivation Center, Nanjing.
Instruments: self-made bar-grabbing apparatus: stainless steel bar in mice box, which was 0.3 cm in diameter and […].
Corresponding solvent double-distilled water was administered intragastrically to the negative control group and the model group, corresponding positive drugs were administered intragastrically to the positive drug groups (a small amount of acetic acid was first added and then double-distilled water was added when dissolving), and corresponding dosages of compounds were administered intragastrically to the compound groups for each dosage, with the volume for intragastric administration as 0.1 ml/10 g. At 30 min, 60 min, 90 min after the intragastric administration, the two forepaws of the mice were gently placed on the bars (which were 20 cm in length, 0.3 cm in diameter, and 5.5 cm above the bench), and the hindpaws of the animals were placed on the bottom of the box. The durations of the mice to maintain the posture with the two forepaws on the bars were recorded, and 30 s of spasticity without moving was considered as the positive response. In the case the forepaws of the mice were not put down persistently, the observation was terminated at 60 s. The numbers of animals with positive response in each of the compound dosage groups were counted.

in vivo = settings: both sexes, mouse, in vivo, po; single intragastric administration in mice; read-out: LD50 (po, mg/kg)
5HT2A receptor = 5HT2A receptor (Rattus norvegicus, UniProt P14842); assay: 5HT2A receptor binding assay ([3H]-Ketanserin, rat striatum membrane); settings: for inhibition at 10 µM: read-out: 5HT2A Inhibition rate (%); for affinity with 5HT2A (in words): summary of in vitro assay
Histamine H1 receptor = Histamine H1 receptor (Rattus norvegicus, UniProt P31390); assay: Histamine H1 receptor binding assay (3H-pyrilamine, rat cerebellum membrane); settings: for inhibition at 10 µM: read-out: H1 Inhibition rate (%); for affinity with H1 (in words): summary of in vitro assay
Sequence of Histamine H1 receptor (P31390 whole entry): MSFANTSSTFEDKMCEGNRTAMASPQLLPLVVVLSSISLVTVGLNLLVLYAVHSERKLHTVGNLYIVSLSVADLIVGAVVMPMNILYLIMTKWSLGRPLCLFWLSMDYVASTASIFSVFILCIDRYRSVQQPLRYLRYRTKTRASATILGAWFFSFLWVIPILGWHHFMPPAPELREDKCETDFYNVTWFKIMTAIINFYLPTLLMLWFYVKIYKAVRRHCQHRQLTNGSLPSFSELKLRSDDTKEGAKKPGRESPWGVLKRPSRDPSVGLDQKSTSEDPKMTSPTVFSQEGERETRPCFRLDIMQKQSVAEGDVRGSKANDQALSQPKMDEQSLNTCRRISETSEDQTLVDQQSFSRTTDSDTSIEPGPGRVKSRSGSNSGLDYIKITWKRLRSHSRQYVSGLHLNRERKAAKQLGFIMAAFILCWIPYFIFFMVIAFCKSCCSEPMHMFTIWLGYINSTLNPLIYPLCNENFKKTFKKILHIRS
Method: The supernatant was discarded to give pellets, and homogenate F was added again to the pellets for washing. Centrifugation was conducted and repeated 3 times.
(2) 100 μL of membrane preparation was added into each reaction tube.

Sequence of 5HT2A receptor (P14842 whole entry): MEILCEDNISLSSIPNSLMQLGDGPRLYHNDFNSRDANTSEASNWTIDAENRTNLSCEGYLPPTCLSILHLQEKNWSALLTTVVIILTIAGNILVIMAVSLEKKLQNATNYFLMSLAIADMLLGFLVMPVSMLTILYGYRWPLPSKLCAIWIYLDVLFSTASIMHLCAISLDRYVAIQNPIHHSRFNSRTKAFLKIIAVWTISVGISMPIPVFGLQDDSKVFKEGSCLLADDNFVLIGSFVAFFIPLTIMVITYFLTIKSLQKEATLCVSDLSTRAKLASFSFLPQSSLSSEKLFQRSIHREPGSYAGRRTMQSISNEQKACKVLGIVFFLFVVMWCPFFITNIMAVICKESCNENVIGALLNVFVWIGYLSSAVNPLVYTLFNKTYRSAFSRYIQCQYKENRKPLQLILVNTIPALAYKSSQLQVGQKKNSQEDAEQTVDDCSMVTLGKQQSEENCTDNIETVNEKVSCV
T1 sequence (P35462 whole entry): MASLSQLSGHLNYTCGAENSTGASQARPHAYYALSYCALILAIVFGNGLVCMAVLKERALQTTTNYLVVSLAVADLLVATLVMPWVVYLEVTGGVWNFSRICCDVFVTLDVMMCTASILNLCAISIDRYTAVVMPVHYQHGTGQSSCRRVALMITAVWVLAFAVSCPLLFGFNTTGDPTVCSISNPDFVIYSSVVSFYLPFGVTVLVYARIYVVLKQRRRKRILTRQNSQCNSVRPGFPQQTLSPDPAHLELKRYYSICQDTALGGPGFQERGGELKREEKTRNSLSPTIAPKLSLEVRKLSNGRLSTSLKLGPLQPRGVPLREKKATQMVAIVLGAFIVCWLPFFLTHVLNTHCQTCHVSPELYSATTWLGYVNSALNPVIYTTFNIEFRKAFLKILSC

SMILES | affinity with D2 (in words) (D2 receptor) | D2 Inhibition rate (%) (D2 receptor) | affinity with D3 (in words) (D3 receptor) | inhibition at 10 µM (D3 receptor) | affinity with α1 (in words) [1] | α1 Inhibition rate (%) [1] | ED50 (mice of Kunming breed [2]) | ED50 (mice of Kunming breed [3]) | ED50 (Catalepsy assay in mice) | LD50 at 7 days (in vivo) | inhibition at 10 µM (5HT2A receptor) | affinity with 5HT2A (in words) (5HT2A receptor) | inhibition at 10 µM (Histamine H1 receptor) | affinity with H1 (in words) (Histamine H1 receptor)
O=C(CCCN1CCC(c2noc3cc(F)ccc23)CC1)c1cc2c3c(c1)CCC(=O)N3CCC2 [Compound 5] | high affinities | 99.40% | high affinities | 98% | low affinities | 43.75% | 2.2 mg/kg | 1.31 mg/kg | > 200 mg/kg | > 2000 mg/kg | 99.5% | high affinities | 44.5% | low affinities
O=C(CCN1CCC(c2noc3cc(F)ccc23)CC1)c1cc2c3c(c1)CCN3C(=O)CC2 [Compound 12] | high affinities | 97.75% | high affinities | 94.9% | low affinities | 58.91% | 0.06 mg/kg | 0.076 mg/kg | 8.45 mg/kg | > 2000 mg/kg | 94.4% | high affinities | 41.4% | low affinities
